Source: US6420374B1, “Use of xanthines as immunosuppressants and to inhibit allograft reactions” (Fred Hutchinson Cancer Research Center, priority 1990, dated 2002)
“Also recorded” adds a separate entry of the source. Read-outs that look alike come from different tables or passages of the source.

Experiments:
[1] = system: bidirectional MLR of blood mononuclear cells; assay: Bidirectional mixed leukocyte reaction (MLR), tritiated thymidine (3Htdr) uptake; format: cell-based, human; conditions: for inhibition of 3Htdr uptake: blood mononuclear cells with PHA and in bidirectional MLR's, after 6 days in culture, concentration dependent; for T cell activation and proliferation: both by direct stimulation with PHA and in an MLR; for lowest concentration with significant suppression of 3Htdr uptake / most effective concentration (highest concentration tested): PHA / MLR cultures; for suppressing lymphocyte activation evidenced by MLR: in vitro
Text: More particularly, co-cultivation of leukocytes from unrelated individuals leads to blast transformation and proliferation similar to that observed upon addition of mitogens to T-cells. The basis of this reaction appears to be the activation of T-cells from one individual by cell surface markers of another. Co-culturing of blood leukocytes from two individuals is referred to as “mixed leukocyte culture” or “MLC” and the reaction as “mixed leukocyte reaction” or “MLR”. Co-culturing of cells obtained from lymphoid organs is designated “mixed lymphocyte culture” or “mixed lymphocyte reaction”. Since even in the mixed leukocyte reaction, the participating cells are peripheral blood T lymphocytes, there is generally substantially no difference between the two types of culture. Thus, these expressions are used interchangeably herein.
MLR can be carried out using conventional techniques. Cultured cells for the MLR can be derived from peripheral blood, spleen, lymph nodes, or thymus. Cell number can vary by several orders of magnitude. The stimulating cells can be inactivated by irradiation or treatment with an antibiotic to disrupt DNA replication. The culture medium can be supplemented, if necessary, by serum proteins of autologous, syngeneic, allogeneic, or xenogeneic origin. Cultivation can be carried out over a period of several days. The degree of stimulation of responder cells by stimulating cells can be determined from the uptake rate of ^3H-thymidine or radiolabeled amino acids or by counting blasts and dividing cells. If a radiolabel is employed, it can be added to the culture several hours before harvesting.
When blood mononuclear cells from two unrelated individuals are cultured together, mutual stimulation occurs resulting in T cell activation and blastogenesis and ultimately in the generation of cytotoxic T cells and memory cells. This complex series of events, termed the mixed leukocyte reaction (MLR), requires genetic disparaties at the HLA-DR locus. Monocytic cells are needed for antigen processing and presentation. The MLR is thus measures lymphocyte recognition and response to non-self-antigens and serves as an in vitro representation of some of the cellular events associated with graft-versus-host disease (GVHD) and allograft rejection.
(§1) Results are the means SD of triplicate wells.
(§2) All values except those for M1 represent: the means of calculated results from 6 to 8 independent experiments. The M1 results are the average of 2 independent experiments.

TNF mRNA = TNF mRNA level in whole cellular RNA extracted from an MLR; format: cell-based, human; conditions: MLR containing the compound
Text: There was no decrease in cell viability in the test cultures as assessed by trypan blue dye exclusion (cell viability >95% in all groups). When whole cellular RNA was extracted from an MLR, there was some upregulation of […] compared to cultures of the mononuclear cells cultured individually. However, basal levels of TNF mRNA were readily detectable, possibly due to some activation during the culture period. This was also reflected by significant levels of ^3Htdr uptake.

[2] = system: T cell activation antigens (HLA-DR, transferrin receptor, IL-2 receptor, CD69; CD2); assay: Expression of T cell activation antigens by direct immunofluorescence after 6 days in a bidirectional MLR; format: cell-based, human; conditions: for expression of CD69 / expression of HLA-DR / expression of the IL-2 receptor / expression of the transferrin receptor: to near the levels of mononuclear cells from a single donor
Experimental: The following fluorescein isothyoc:yanate (FITC) or phycoerythrin (PE) conjugated antibodies were used: IgGl and IgG2a isotype controls, anti-HLe-1 (CD45), anti-LeuM3 (CD14). anti-Leu4(cd3), anti-IL2-receptor (CD25), anti-transferrin receptor (CD71), anti-HLA-DR, and anti-Leu23 (CD69). (All antibodies were from Becton-Dickinson, San Jose, Calif.) Staining was performed using Manufacturer's recommendations ([…] antibody/10^6 cells in 0.1 ml of phosphate buffered saline for 20′ at room temperature). The cells were washed twice, resuspended and analyzed on a Becton-Dickinson FACSan flow cytometer operating under Consort 30 software. The lymphocyte analysis gate was determined on the basis of forward scatter and side scatter and confirmed by examination of two-color immunofluorescence display for CD4S and CD14. Data are presented as the percentage of cells with fluorescence greater than that of the appropriate isotype control.
During T cell activation, there is increased expression of certain cell surface determinants which can serve as markers of activation.

[3] = cited from earlier work; for rank among the metabolites of pentoxifylline: in vivo
TNF = assay: Release of TNF into the culture medium; format: cell-based, human
TNF mRNA in U937 cells = conditions: cited from earlier work
[4] = system: PHA-stimulated mononuclear cells; assay: PHA-stimulated blood mononuclear cells, tritiated thymidine (3Htdr) uptake; format: cell-based, human; conditions: rhTNF 200 U/ml added at inception of culture
Text: as §1, §2

[5] = human urine, Metabolites II and III together

What does the source list for `CCOCn1cnc2c1c(=O)n(CCCCC(C)(C)O)c(=O)n2C` [Compound 1, 7-ethoxymethyl-1-(5-hydroxy-5-methylhexyl)-3-methylxanthine]?
inhibition of 3Htdr uptake [1]: actively inhibited; T cell activation and proliferation [1]: suppressed; level of TNF mRNA (TNF mRNA): significantly decreased; expression of CD2 (non-activation dependent pan-T antigen) [2]: no differences; expression of CD69 [2]: decreased; expression of HLA-DR [2]: decreased; expression of the IL-2 receptor [2]: decreased; expression of the transferrin receptor [2]: decreased

With `CC(O)CCCCn1c(=O)c2c(ncn2C)n(C)c1=O` (centres unmarked) [Compound M1, 1-(5-hydroxyhexyl)-3,7-dimethylxanthine] as the molecule, how does the “amount found in urine” value ([3]; human urine) read?
Its value is “Only traces”.

What about the “rank among the metabolites of pentoxifylline” value [3] of the same molecule?
Its value is “major metabolites”.

What about the “lowest concentration with significant suppression of 3Htdr uptake” value [1] of the same molecule?
The value was 0.01 mM.

And the “most effective concentration (highest concentration tested)” value [1]?
The value was 1 mM.

And the “inhibition of 3Htdr uptake” value [1]?
Its value is “actively inhibited”.

And the “T cell activation and proliferation” value [1]?
The value was “suppressed”.

With `CCCCn1c(=O)c2c(ncn2CC(C)=O)n(CCCC)c1=O` [Denbufylline, 7-acetonyl-1,3-dibutyl-xanthine] as the molecule, how does the “suppressing lymphocyte activation evidenced by MLR” value [1] read?
Its value is “not effective”.

And the “suppressing lymphocyte activation evidenced by MLR” value ([1]; listed as compound (III))?
Its value is “has not been demonstrated”.

Which “share of the excretion products” value [3, 5] does the source give for `Cn1cnc2c1c(=O)n(CCCCC(O)CO)c(=O)n2C` (centres unmarked) [Metabolite II, 1-(5,6-dihydroxyhexyl)-3,7-dimethylxanthine] here?
Its value is “approximately 12%”.

With `CC(O)C(O)CCCn1c(=O)c2c(ncn2C)n(C)c1=O` (centres unmarked) [Metabolite III, 1-(4,5-dihydroxyhexyl)-3,7-dimethylxanthine] as the molecule, how does the “share of the excretion products” value [3, 5] read?
The value was “approximately 12%”.

With `Cn1cnc2c1c(=O)n(CCCCC(=O)O)c(=O)n2C` [Metabolite IV, 1-(4-carboxybutyl)-3,7-dimethylxanthine] as the molecule, how does the “share of the excretion products” value ([3]; human urine) read?
The value was “about 8%”.

What does the source list for `Cn1cnc2c1c(=O)n(CCCC(=O)O)c(=O)n2C` [Metabolite V, 1-(3-carboxypropyl)-3,7-dimethylxanthine]?
share of the administered dose in urine ([3]; human urine, main urinary metabolite): 50-60%; rank among the metabolites of pentoxifylline [3]: major metabolites

Which “release of the cytokine (TNF) into the culture medium” value (TNF) does the source give for `CC(=O)CCCCn1c(=O)c2c(ncn2C)n(C)c1=O` [PTX, 1-(5-oxohexyl)-3,7-dimethylxanthine] here?
The value was “decreased”.

What about the “lowest concentration with significant suppression of 3Htdr uptake” value [1] of the same molecule?
The value was 0.01 mM.

What about the “most effective concentration (highest concentration tested)” value [1] of the same molecule?
The value was 1 mM.

And the “inhibition of 3Htdr uptake” value [1]?
The value was “actively inhibited”.

What about the “T cell activation and proliferation” value [1] of the same molecule?
Its value is “suppressed”.

What about the “diminution (suppression) of the MLR after addition of recombinant human TNF” value ([1]; rhTNF 200 U/ml added at inception of culture) of the same molecule?
Its value is “not abrogated; also recorded: not reversed”.

What about the “endotoxin induced upregulation of TNF mRNA” value (TNF mRNA in U937 cells) of the same molecule?
The value was “can prevent”.

And the “level of TNF mRNA” value (TNF mRNA)?
Its value is “significantly decreased”.

And the “diminution in response to PHA after addition of recombinant human TNF” value [4]?
Its value is “not abrogated”.

What about the “expression of CD2 (non-activation dependent pan-T antigen)” value [2] of the same molecule?
The value was “no differences”.

What about the “expression of CD69” value [2] of the same molecule?
Its value is “decreased”.

And the “expression of HLA-DR” value [2]?
Its value is “decreased”.

And the “expression of the IL-2 receptor” value [2]?
Its value is “decreased”.

What about the “expression of the transferrin receptor” value [2] of the same molecule?
Its value is “decreased”.
